This note sets out measurements from paper PMC5159850, “An adenylyl cyclase with a phosphodiesterase domain in basal plants with a motile sperm system” (Scientific Reports, 2016).

The assay addresses T1, His-MpCAPE-PDE (Marchantia polymorpha, UniProt A0A1V1FXL5).
T1 construct: gene CAPE; N-terminal PDE domain 101-479 of 1610-residue MpCAPE; 6xHis and T7 tags (pET28a); E. coli Rosetta2(DE3)pLysS host; partially purified on Ni column
In words: reverse-phase HPLC of AMP or GMP formed, […] nm. Particulars: 0.5 mM cGMP, 0.5 mM MgCl2, MnCl2 or FeCl2, Tris-HCl pH 8.0, 37 °C, 20 min; partially purified protein. It counts as biochemical.

T1 sequence (A0A1V1FXL5 entry or part of it): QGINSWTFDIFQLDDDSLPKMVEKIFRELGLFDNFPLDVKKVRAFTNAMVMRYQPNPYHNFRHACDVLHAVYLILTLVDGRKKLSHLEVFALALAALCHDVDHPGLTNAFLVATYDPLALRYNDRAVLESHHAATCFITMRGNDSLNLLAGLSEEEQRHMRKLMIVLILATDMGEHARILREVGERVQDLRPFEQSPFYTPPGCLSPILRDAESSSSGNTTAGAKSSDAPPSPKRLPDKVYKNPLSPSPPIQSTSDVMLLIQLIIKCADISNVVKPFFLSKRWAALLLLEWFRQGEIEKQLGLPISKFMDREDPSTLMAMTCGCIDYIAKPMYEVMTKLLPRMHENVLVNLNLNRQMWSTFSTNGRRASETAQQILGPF

Regarding `Nc1nc2c(ncn2[C@@H]2O[C@@H]3COP(=O)(O)O[C@H]3[C@H]2O)c(=O)[nH]1` [cGMP], the “reverse-phase HPLC of AMP or GMP formed, 259 nm” value is “The result showed that His-MpCAPE-PDE hydrolyzed both cAMP and cGMP”.
